These results are taken from ChEMBL document CHEMBL5543136, “Discovery of Novel Heterotricyclic Compounds as DNA-Dependent Protein Kinase (DNA-PK) Inhibitors with Enhanced Chemosensitivity, Oral Bioavailability, and the Ability to Potentiate Cancer Immunotherapy” (J Med Chem, 2024).

Calls of active or inactive are those of the source.

In data set [1] the test system is CT26. The data set can be described thus: Antitumor activity against mouse CT26 cells implanted in BALB/c mouse assessed as reduction in tumor volume by measuring tumor growth inhibition at 10 mg/kg, ip QD co-administered with doxorubicin for 21 days relative to control. Type of data set: functional. Conditions: CT26, 504 h, time 21 day, read-out: TGI.
A short description of data set [2]: Selectivity ratio of IC50 for antiproliferative activity against mouse B16-F10 cells to IC50 for synergistic antiproliferative activity against mouse B16-F10 cells in presence of doxorubicin. Type of data set: functional.
Data set [3] deals with Jurkat. The data set can be described thus: Synergistic antiproliferative activity against human Jurkat cells assessed as reduction in cell viability incubated for 48 hrs in presence of doxorubicin by CCK-8 assay. Type of data set: functional, cell-based. (In general: Tetrazolium dyes change colour on reduction, which living cells bring about.)
Data set [4] relates to B16-F10. The data set can be described thus: Antitumor activity against mouse B16-F10 cells implanted in C57BL/6 mouse assessed as tumor growth inhibition at 10 mg/kg, ip QD co-administered with PD-L1 antibody for 13 days relative to control. Type of data set: functional. The following applies: B16-F10, 312 h, time 13 day, read-out: TGI.
Data set [5] in a line: Toxicity in C57BL/6 mouse implanted with mouse B16-F10 cells assessed as change in spleen histopathology at 10 mg/kg, ip administered once daily for 13 days by H&E staining based analysis. Type of data set: organism-based. The following applies: in vivo, 312 h, time 13 day.
In data set [6] the target is DNA-dependent protein kinase catalytic subunit (Homo sapiens, UniProt P78527). The data set can be described thus: Inhibition of human full-length DNA-PK using EPPLSQEAFADLWKK as substrate incubated for 60 mins in presence of ATP by ADP-Glo kinase assay. (ADP-Glo turns the ADP formed in a reaction into a luminescent signal.)
Data set [7] can be described thus: Clearance in male Sprague-Dawley rat at 10 mg/kg, po measured after 48 hrs by LC-MS/MS analysis. Type of data set: ADME, organism-based. The following applies: in vivo.
The nature of data set [8]: Half-life in male Sprague-Dawley rat at 10 mg/kg, po measured after 48 hrs by LC-MS/MS analysis. Type of data set: ADME, organism-based. Conditions: in vivo.
Data set [9] can be described thus: Toxicity in C57BL/6 mouse implanted with mouse B16-F10 cells assessed as change in lung histopathology at 10 mg/kg, ip administered once daily for 13 days by H&E staining based analysis. Type of data set: organism-based. The following applies: in vivo, 312 h, time 13 day.
Data set [10] can be described thus: Oral bioavailability in male Sprague-Dawley rat at 10 mg/kg measured after 48 hrs by LC-MS/MS analysis. Type of data set: ADME, organism-based. Conditions: in vivo.
The nature of data set [11]: Toxicity in BALB/c mouse implanted with mouse CT26 cells assessed as weight loss at 10 mg/kg, ip administered once daily for 21 days. The following applies: in vivo, 504 h, time 21 day. Type of data set: organism-based.
The test system of data set [12] is B16-F10. In words: Immunomodulatory activity in mouse B16-F10 cells implanted in C57BL/6 mouse assessed as percentage of CD3 positive CD4 positive cells in tumor at 10 mg/kg, ip QD co-administered with SWS1 for 13 days by flow cytometric analysis (reference value: 0.86%). Type of data set: functional. Conditions: time 13 day. A general note: Flow cytometry measures light scatter and fluorescence of single cells or particles in a stream.

In data set [13] the test system is Cell membrane. In words: Induction of mitochondrial membrane potential loss in human Jurkat cells at 1 uM incubated for 24 hrs in presence of doxorubicin by JC-1 staining based flow cytometric analysis. Type of data set: cell membranes.
Data set [14] deals with HepG2. In words: Inhibition of DNA damage repair in human HepG2 cells assessed as reduction in gammaH2AX expression level by Western blot analysis. Type of data set: functional, cell-based. The following applies: dose 10-40 µM.
The nature of data set [15]: Toxicity in C57BL/6 mouse implanted with mouse B16-F10 cells assessed as change in kidney histopathology at 10 mg/kg, ip administered once daily for 13 days by H&E staining based analysis. Type of data set: organism-based. The following applies: in vivo, 312 h, time 13 day.
Data set [16] has as its system CT26. The data set can be described thus: Antitumor activity against mouse CT26 cells implanted in BALB/c mouse assessed as reduction in tumor weight at 10 mg/kg, ip administered once daily for 21 days relative to control. Type of data set: functional. Also noted: scale not given: the % may be the effect or the level left. The following applies: time 21 day.
Data set [17] concerns Jurkat. The data set can be described thus: Inhibition of DNA damage repair in human Jurkat cells assessed as reduction in gammaH2AX expression level by Western blot analysis. Type of data set: functional, cell-based. The following applies: dose 0.1-5 µM.
For data set [18], the system named is B16-F10. The data set can be described thus: Antitumor activity against mouse B16-F10 cells implanted in C57BL/6 mouse assessed as tumor growth inhibition at 10 mg/kg, ip administered once daily for 13 days relative to control. Conditions: B16-F10, 312 h, time 13 day, read-out: TGI. Type of data set: functional.
Data set [19] in a line: Tmax in male Sprague-Dawley rat at 10 mg/kg, po measured after 48 hrs by LC-MS/MS analysis. Type of data set: ADME, organism-based. The following applies: in vivo.

Sequence of DNA-dependent protein kinase catalytic subunit (P78527 whole entry): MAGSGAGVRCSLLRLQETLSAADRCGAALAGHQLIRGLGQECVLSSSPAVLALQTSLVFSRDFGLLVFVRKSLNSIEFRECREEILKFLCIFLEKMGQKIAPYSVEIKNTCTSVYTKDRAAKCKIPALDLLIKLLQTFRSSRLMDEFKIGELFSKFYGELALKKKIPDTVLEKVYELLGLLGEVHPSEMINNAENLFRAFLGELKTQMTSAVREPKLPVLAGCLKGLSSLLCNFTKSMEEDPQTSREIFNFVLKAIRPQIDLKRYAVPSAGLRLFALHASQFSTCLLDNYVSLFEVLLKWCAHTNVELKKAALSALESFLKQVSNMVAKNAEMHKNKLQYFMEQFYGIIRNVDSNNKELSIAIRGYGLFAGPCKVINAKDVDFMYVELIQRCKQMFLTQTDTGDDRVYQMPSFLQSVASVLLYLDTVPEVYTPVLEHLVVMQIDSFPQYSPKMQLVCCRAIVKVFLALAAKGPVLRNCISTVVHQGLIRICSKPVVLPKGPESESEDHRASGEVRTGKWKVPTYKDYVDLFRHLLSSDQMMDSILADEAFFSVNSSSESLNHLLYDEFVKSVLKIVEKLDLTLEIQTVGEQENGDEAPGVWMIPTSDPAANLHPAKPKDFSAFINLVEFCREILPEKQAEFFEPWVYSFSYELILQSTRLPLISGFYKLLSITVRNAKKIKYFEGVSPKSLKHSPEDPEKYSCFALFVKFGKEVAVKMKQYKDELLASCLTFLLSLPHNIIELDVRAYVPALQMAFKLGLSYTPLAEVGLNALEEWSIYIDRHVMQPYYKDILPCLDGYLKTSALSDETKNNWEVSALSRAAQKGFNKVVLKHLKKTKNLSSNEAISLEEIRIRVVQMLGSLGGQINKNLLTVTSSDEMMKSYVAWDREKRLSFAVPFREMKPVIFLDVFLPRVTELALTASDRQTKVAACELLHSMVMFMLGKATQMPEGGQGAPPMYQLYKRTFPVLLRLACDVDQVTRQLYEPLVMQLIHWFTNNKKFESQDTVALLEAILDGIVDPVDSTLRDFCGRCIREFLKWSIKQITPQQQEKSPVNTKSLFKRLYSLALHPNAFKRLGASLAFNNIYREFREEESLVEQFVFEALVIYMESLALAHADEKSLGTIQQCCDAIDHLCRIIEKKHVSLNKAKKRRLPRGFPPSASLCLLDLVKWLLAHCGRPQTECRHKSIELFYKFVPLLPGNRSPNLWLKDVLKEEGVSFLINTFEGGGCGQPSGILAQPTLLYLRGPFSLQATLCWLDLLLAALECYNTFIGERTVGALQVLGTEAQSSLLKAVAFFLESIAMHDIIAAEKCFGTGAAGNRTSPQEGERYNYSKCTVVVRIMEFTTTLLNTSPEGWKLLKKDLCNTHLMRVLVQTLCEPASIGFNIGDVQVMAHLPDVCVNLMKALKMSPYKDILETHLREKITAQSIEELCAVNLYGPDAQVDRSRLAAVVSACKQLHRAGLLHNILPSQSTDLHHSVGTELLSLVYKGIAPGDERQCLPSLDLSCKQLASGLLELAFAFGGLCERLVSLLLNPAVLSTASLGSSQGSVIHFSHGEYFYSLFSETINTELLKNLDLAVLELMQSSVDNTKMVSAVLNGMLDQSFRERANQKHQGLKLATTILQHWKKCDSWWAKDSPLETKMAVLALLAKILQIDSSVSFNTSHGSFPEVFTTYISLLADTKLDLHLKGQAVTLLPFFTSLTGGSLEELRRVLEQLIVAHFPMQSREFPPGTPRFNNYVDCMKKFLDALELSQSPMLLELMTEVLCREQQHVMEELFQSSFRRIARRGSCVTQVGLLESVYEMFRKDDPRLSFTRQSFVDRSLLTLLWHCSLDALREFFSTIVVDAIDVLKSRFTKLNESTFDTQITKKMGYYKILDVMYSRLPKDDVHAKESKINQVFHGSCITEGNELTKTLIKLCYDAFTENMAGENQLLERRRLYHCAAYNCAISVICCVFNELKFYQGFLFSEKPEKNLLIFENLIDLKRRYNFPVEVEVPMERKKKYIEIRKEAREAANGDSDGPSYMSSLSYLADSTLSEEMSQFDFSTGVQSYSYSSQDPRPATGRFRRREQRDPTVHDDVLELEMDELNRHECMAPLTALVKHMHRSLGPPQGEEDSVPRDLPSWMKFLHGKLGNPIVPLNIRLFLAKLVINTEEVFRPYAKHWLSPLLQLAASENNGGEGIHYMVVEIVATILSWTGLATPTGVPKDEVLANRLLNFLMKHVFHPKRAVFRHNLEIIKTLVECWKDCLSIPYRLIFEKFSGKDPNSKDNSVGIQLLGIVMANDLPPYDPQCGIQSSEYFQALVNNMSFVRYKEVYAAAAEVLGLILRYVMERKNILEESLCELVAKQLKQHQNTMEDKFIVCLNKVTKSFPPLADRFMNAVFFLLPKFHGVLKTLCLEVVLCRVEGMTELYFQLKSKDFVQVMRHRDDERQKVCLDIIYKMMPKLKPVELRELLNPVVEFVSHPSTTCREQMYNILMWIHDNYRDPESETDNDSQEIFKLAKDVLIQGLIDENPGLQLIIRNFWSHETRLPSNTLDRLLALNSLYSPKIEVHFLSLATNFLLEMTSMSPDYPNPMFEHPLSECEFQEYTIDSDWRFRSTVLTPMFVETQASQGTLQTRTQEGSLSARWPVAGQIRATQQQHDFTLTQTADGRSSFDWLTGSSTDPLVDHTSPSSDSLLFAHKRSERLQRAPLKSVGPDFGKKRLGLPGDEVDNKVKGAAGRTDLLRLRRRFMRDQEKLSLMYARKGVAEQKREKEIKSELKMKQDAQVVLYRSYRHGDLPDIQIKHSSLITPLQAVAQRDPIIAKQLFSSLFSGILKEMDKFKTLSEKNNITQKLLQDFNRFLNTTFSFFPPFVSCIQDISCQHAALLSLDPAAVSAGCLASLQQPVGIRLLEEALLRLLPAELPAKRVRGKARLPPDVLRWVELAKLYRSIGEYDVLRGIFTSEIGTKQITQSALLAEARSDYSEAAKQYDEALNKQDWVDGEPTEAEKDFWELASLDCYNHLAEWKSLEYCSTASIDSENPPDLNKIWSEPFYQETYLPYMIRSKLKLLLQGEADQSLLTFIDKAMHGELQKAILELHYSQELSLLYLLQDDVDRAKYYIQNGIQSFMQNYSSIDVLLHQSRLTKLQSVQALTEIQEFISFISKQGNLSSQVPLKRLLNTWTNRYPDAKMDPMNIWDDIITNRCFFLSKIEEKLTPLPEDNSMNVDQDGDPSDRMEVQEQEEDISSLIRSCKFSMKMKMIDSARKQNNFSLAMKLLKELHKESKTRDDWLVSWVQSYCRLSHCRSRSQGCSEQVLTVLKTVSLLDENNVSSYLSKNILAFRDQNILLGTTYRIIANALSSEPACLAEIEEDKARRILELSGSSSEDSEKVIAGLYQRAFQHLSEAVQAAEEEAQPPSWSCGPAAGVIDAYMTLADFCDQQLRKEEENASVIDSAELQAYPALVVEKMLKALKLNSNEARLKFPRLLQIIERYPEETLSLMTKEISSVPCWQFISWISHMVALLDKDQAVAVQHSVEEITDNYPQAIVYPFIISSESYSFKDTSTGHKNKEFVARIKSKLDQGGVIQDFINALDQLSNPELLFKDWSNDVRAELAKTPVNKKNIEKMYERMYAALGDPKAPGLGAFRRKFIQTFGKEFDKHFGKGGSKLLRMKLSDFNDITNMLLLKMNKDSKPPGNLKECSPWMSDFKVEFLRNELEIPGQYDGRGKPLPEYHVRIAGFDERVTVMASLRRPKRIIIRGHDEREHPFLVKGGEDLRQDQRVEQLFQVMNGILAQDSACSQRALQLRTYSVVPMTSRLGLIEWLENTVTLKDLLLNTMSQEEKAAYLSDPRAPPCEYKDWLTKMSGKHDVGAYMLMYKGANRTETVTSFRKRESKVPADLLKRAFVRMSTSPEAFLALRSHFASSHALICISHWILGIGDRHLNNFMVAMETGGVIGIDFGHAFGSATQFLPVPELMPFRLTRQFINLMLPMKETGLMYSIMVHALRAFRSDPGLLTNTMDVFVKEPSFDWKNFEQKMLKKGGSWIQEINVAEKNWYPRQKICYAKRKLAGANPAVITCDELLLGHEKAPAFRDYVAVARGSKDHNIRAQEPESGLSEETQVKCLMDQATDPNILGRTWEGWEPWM

For `Cc1cc2cccnc2cc1Nc1ncc2c(n1)N(C1CCOCC1)Cc1nncn1-2`, the inhibition in vivo at 10 mg/kg in [1] came to 59.5%; in [4], 60.5%; in [18] it was 35.9%. In [2], the “Ratio IC50” value was 2.1. Further, the values for the IC50 in [3] and in data set [6] were 0.02 µM and 0.00011 µM, respectively. The Activity entry in [5] is reported as “Non-Toxic”; in data set [9] it was “Non-Toxic”; in [11] it was “Non-Toxic”; in [12], 4.02%; in data set [15], “Non-Toxic”; in data set [16] it was 30.8%. This molecule gave a CL/F in [7] of 210 mL/min/kg. Also, in [8], the half-life is 2 h. The molecule also registered a bioavailability in data set [10] of 31.8%. For the same molecule, the result in data set [13] was Active. Moreover, the inhibition result in data set [14] and in data set [17] was “Dose-Dependent Effect” each time. In data set [19], the Tmax stood at 1.4 h.

One may read the IC50 as the point on the concentration scale where inhibition reaches its midpoint. As usually defined, the CL/F is the apparent clearance, not corrected for the fraction that reaches the circulation. For orientation: half-life means the time needed for the level to fall by half in the phase considered. By bioavailability is commonly meant the share of a dose that reaches the circulation, judged against a reference dose that is usually intravenous. What is called Tmax is the time from dosing to the highest level.
